Test results from publication PMC3574584 (Journal of medicinal chemistry, 2013).
“Also recorded” adds a separate entry of the source.

Test system: Raw264.7 cells expressing mPTPB
Experiment: Akt phosphorylation by Western blotting
Format: cell-based, mouse
Settings: mPTPB expressing Raw264.7 macrophages, IFN-γ 200 U/ml; 6c at 240 nM

Structure (SMILES) | Akt activity (phospho-Akt)
O=C(O)c1cc2c(C#Cc3cccc(C(F)(F)F)c3)c(-c3ccccc3)oc2cc1O [Compound 4g, 6-hydroxy-2-phenyl-3-((3-(trifluoromethyl)phenyl)ethynyl)benzofuran-5-carboxylic acid] | normalized; also recorded: blocks
O=C(O)c1cc2c(CCc3ccc(OC(F)(F)F)cc3)c(-c3ccccc3)oc2cc1O [Compound 6c, 6-hydroxy-2-phenyl-3-(4-(trifluoromethoxy)phenethyl)benzofuran-5-carboxylic acid] | unable to reverse
